From PubChem BioAssay AID1159565 (GlaxoSmithKline (GSK), 2015)
Calls of active or inactive are those of the source. The rule behind the calls is not given here.

Tested on: T. cruzi-infected H9C2 cardiomyocytes, high-content imaging
Assay: intracellular T. cruzi amastigote inhibition, imaging, H9C2 host cardiomyocytes, host toxicity (AID 1159565);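 note: infected cells incubated 72 h after plating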
[1] = measured here: H9C2 host cell toxicity
[2] = measured here: amastigotes per cell

Compound | IC50 | IC50 [1] [µM] | IC50 [2] [µM]
O=c1[nH]cnc2c([C@@H]3O[C@H](CO)[C@@H](O)[C@H]3O)[nH]nc12 | 0.5 µM | > 50 | 0.32
Cc1cc(Oc2cc(Cl)c(Cl)cc2Cl)n2ncnc2n1 | 25 µM | 7.9 | 10
Cc1ccc(NC(=O)c2ccc([N+](=O)[O-])s2)cc1S(=O)(=O)N1CCOCC1 | 0.4 µM | 5 | 0.25
CCN(CC)c1nc(N(C)C)nc2c1CN(Cc1ccccc1)CC2 | 20 µM | > 50 | 4
NC(=O)c1cc(NC(=O)c2ccccc2COc2ccccc2)ccc1Cl | 32 µM | > 50 | 25
Cc1nc(-c2ccc3c(c2)OCO3)sc1C(=O)NCc1ccc2c(c1)OCO2 | 0.79 µM | > 50 | 0.5
CCN(Cc1cccs1)C(=O)CSc1nnc(-c2ccc3c(c2)OCO3)o1 | 2.5 µM | > 50 | 1.6
CCCCN(C(=O)c1ccc(NC(=O)C(C)C)cc1)c1ccccc1 | > 50 µM (inactive) | > 50 | 10
Cc1nc2nc(C)c(Cc3ccc(C(C)C)cc3)c(=O)n2[nH]1 | 0.79 µM | > 50 | 0.25
COc1ccc(C2=NCC(CSc3nnc(-c4ccc5c(c4)OCO5)o3)S2)cc1 (stereo unspecified) | 0.5 µM | > 50 | 0.32
CCCC(=O)N(Cc1ccccn1)c1nc2ccccc2s1 | 0.1 µM | > 50 | 0.079
Cc1c(C(C)NC(=O)Nc2cccc(Cl)c2)sc2ncnn12 (stereo unspecified) | 0.2 µM | > 50 | 0.16
Cc1cc2nc(N3CC[C@H]3C(N)=O)nc(Nc3cc(C4CC4)[nH]n3)c2s1 | 7.9 µM | 0.5 | 4
O=C(Nc1nc(-c2ccccn2)cs1)c1ccccc1-n1cnnn1 | 3.2 µM | 5 | 2
Cc1cccc(NS(=O)(=O)c2cnc3sc(C)cn3c2=O)c1 | 2 µM | 6.3 | 1
NCc1csc(Nc2cc(Oc3ccccc3)ncn2)n1 | 25 µM | > 50 | 32
COc1ccc(Nc2nc(-c3ccccn3)cc(N3CCCC(O)C3)n2)cc1 (stereo unspecified) | 5 µM | 4 | 7.9
Cc1ccc(S(=O)(=O)Nc2ccc(CN3CCN(C(=O)c4cccc(C#N)c4)CC3)cc2)cc1 | 0.5 µM | > 50 | 0.4
O=C(CSc1nnc(-c2ccc3c(c2)OCO3)o1)N(Cc1ccco1)CC(F)(F)F | 3.2 µM | > 50 | 2.5
Cn1nc([N+](=O)[O-])nc1N1CCCCC1 | 13 µM | > 50 | 1
Cc1c(Nc2cc(C3CC3)[nH]n2)ccc(C#N)c1Cl | 25 µM | 10 | 16
CC(C)n1c(-c2nonc2N)nc2cccc(OCCN3CCCC3)c21 | 16 µM | 32 | 25
COc1cccc(-c2c(C)nn(-c3nc(N)nc(-c4ccccn4)n3)c2N)c1 | 2 µM | > 50 | 0.5
CC(C)C[C@H](NC(=O)c1ccc(-c2ccccc2)o1)C(=O)NC1(C#N)CC1 | > 50 µM (inactive) | > 50 | 25

Compound | IC50 | IC50 [1] [µM] | IC50 [2] [µM]
COc1ccccc1-c1c(C)[nH]c2nc(N)nc(C)c12 | 0.25 µM | > 50 | 0.13
O=C1OCc2ccc(Nc3nccc(-c4cnn5ncccc45)n3)cc21 | 0.063 µM | 0.025 | 0.032
O=C(Nc1nc2cc(Cl)ccc2o1)c1cccc(Cl)c1 | 0.79 µM | 2.5 | 0.63
CCn1c(NC(=O)Cc2ccc(F)cc2)nc2ccccc21 | 7.9 µM | > 50 | 4
NC(=O)c1ncc(N[C@@H]2CCCNC2)nc1Nc1cccc(Cl)c1 | 0.4 µM | 1.3 | 0.25
C=CCOCC1Cn2nc([N+](=O)[O-])nc2O1 (stereo unspecified) | 1.3 µM | > 50 | 0.63
O=C(NNC(=O)c1ccccn1)c1ccc(-c2ccccc2)cc1 | 1.6 µM | 2 | 1.3
Cc1ccc(NC(=O)c2ccnc(N3CCCC3)c2)cc1-c1ccsc1C(N)=O | 13 µM | > 50 | 7.9
Cc1[nH]nc(Nc2ccnc3[nH]ccc23)c1C | > 50 µM (inactive) | > 50 | > 50
CC(=O)Nc1ccc(-c2noc(CC3CCCN(Cc4cccc(F)c4C)C3)n2)cc1 (stereo unspecified) | 2 µM | 32 | 1.3
COc1ccc(C2CC(c3ccccc3Cl)=NN2C(=O)CNC(=O)C2CCC2)cc1 (stereo unspecified) | 1.6 µM | > 50 | 1
CN(C)Cc1cccc(Nc2nccc(-c3ccc(NCCN)c(C#N)c3)n2)c1 | 10 µM | 2 | 1.6
CC(C)(C)c1csc(NC(=O)c2ccc([N+](=O)[O-])s2)n1 | 0.32 µM | 13 | 0.2
COc1ccc(S(=O)(=O)NCc2ccc(-c3ccc(CN(C)CCO)cc3)cc2)cc1 | 2.5 µM | > 50 | 1.3
CCN(Cc1nc2ccc(C(=O)N3CCN(c4ncccn4)CC3)cc2[nH]1)C1CCCc2cccnc21 (stereo unspecified) | 13 µM | 16 | 2
O=C(NCc1nnc2n1CCCCC2)c1csc(-c2ccccc2)n1 | 2 µM | > 50 | 2
Cc1cc(NC(=O)C2CC2)ccc1OC1CCN(Cc2ccco2)CC1 | 40 µM | 40 | 20
COc1ncc(-c2ccc3nccc(-c4ccncc4)c3c2)cc1NS(=O)(=O)C1CC1 | 2.5 µM | 0.79 | 2
O=c1cc(NCCCNC2CCOc3c(I)cc(Cl)cc32)[nH]c2ccccc12 (stereo unspecified) | 0.32 µM | 25 | 0.16
CC(C)S(=O)(=O)c1ccc(-c2cnc(N)c3cc(-c4ccnc(N)n4)ccc23)cc1 | 40 µM | 0.5 | 13
Cn1nc(C(=O)N2CCc3ccccc32)c2c1CCS(=O)(=O)C2 | 13 µM | > 50 | 7.9
c1ccc(CCNCc2cncc3nc(-c4cnccn4)n(C4CCCCC4)c23)cc1 | 0.13 µM | > 50 | 0.13
CNc1cc(Cn2c(C(=O)c3cc(C)cc(Cl)c3)c(C(C)C)c(=O)[nH]c2=O)ccn1 | 0.02 µM | > 50 | 0.02
O=c1[nH]ccc2ccc(-c3ccncc3)cc12 | 0.25 µM | > 50 | 0.25

Compound | IC50 | IC50 [1] [µM] | IC50 [2] [µM]
Cc1ccc(S(C)(=O)=O)cc1Nc1nccc(-c2sc(N)nc2-c2ccccc2)n1 | 0.13 µM | 5 | 0.079
CCCc1cc(C(=O)Nc2ncc(-c3cccc(Br)c3)n2C)n[nH]1 | 4 µM | > 50 | 2.5
COc1ccc(NS(=O)(=O)c2cc(-c3cc(C)[nH]n3)ccc2C)cc1OC | 2 µM | > 50 | 1.3
COc1ccccc1C=CCN1C[C@H]2CCC[C@@H](C1)C2(O)c1cccnc1 (stereo partly specified) | 0.04 µM | > 50 | 0.04
COc1ncc(-c2ccc3nccc(-c4ccncc4)c3c2)cc1NS(C)(=O)=O | 25 µM | 5 | 13
Cc1c(CNC(=O)c2ccc(Cn3cc(Cl)c([N+](=O)[O-])n3)cc2)cnn1C | 1.6 µM | > 50 | 0.79
c1ccc(-c2nc(NCc3ccco3)c3ccccc3n2)nc1 | 3.2 µM | 2 | 4
Cn1nccc1-c1cc(OC(CN)c2ccccc2)cnc1-c1ccco1 (stereo unspecified) | 0.1 µM | > 50 | 0.1
CCC(CC)C(=O)Nc1ccc(-c2nnc(-c3ccc(OC)cc3)o2)cc1 | 13 µM | > 50 | 4
COc1cccc(CN(C)Cc2nc(N)c3c(C)c(C)sc3n2)c1 | 16 µM | > 50 | 16
NS(=O)(=O)c1ccc(Nc2nccc(-c3cnn4ncccc34)n2)cc1 | 16 µM | 0.32 | 0.79
O=C(NCCc1ccccc1Cl)c1cccn1-c1cccnc1 | 0.5 µM | > 50 | 0.5
CCc1nn(-c2ncc(F)c(NC(C)C)n2)c(N)c1C1CCCCC1 | 3.2 µM | 1 | 1.6
CC(C)(C)C(=O)NCCc1csc(-c2ccc(F)cc2)n1 | 3.2 µM | > 50 | 2.5
CNS(=O)(=O)c1ccccc1Nc1nc(Nc2ccnn2C)ncc1Cl | 1 µM | 0.16 | 0.63
Cc1cc(C)nc(N2CCC(N(Cc3cccnc3)C(=O)c3cccc(C#N)c3)CC2)n1 | 0.32 µM | > 50 | 0.4
CC(=O)Nc1nc(-c2cc(C)ccc2C)c(C)s1 | 0.2 µM | > 50 | 0.16
O=C(NC1C(=O)N(c2ccccc2)C1c1cccnc1)c1ccc(Cl)s1 (stereo unspecified) | 0.05 µM | > 50 | 0.04
COc1ccc(C(C)(C)C)cc1S(=O)(=O)n1ccnc1 | 0.2 µM | > 50 | 0.2
Cc1ccc(Nc2nc(N)nc(CNC(c3nc4ccccc4[nH]3)C(C)C)n2)cc1 (stereo unspecified) | 7.9 µM | > 50 | 5
CNc1nc(C)nc(N2CCc3cc(C(=O)NCc4ccc(-c5nccn5C)cc4Cl)ccc32)n1 | 13 µM | 50 | 5
COc1cc(NC(=O)Nc2cccc(CNC(=O)OC3CCCCC3)c2)ccc1-c1cnco1 | 25 µM | 16 | 32
CCc1ccccc1[C@@H](C)NC(=O)c1cnc2c(cnn2CC)c1NC1CCN(C(N)=O)CC1 | > 50 µM (inactive) | > 50 | 40
CC(C)(C)Nc1nc(-c2ccccn2)nc2ccccc12 | 2 µM | 0.32 | 1.3
